pKi: −log10 of the molar value.

One assay deals with PIM1 (Homo sapiens (Human), UniProt P11309). As to the kind of experiment: biochemical. The assay is classed as biochemical.
PIM1, sequence (P11309 whole entry): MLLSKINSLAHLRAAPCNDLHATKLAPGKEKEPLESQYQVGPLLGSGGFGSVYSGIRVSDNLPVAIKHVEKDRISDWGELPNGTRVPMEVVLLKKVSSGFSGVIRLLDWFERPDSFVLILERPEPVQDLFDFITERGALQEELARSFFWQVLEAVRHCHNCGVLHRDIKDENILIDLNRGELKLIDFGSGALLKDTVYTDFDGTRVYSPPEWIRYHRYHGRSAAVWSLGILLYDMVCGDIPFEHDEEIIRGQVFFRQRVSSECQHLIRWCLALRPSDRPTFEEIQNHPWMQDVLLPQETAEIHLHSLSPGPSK
Conditions: not given
Usually pKi stands for the Ki on a negative log10 scale, so that one unit is a factor of ten. In the case of `Cn1ncc(NC(=O)c2csc(-c3c(F)cc(C(O)C4CC4)cc3F)n2)c1[C@@H]1CC[C@@H](N)[C@H](F)CO1` (stereo partly drawn) [Example 275, N-(5-((2S,5R,6S)-5-amino-6-fluorooxepan-2-yl)-1-methyl-1H-pyrazol-4-yl)-2-(4-(cyclopropyl(hydroxy)methyl)-2,6-difluorophenyl)thiazole-4-carboxamide], the pKi was 10.43.

Still in this assay, the particulars now being: 20 pM PIM1, 1 μM FAM-peptide, 10 μM ATP, 90 minutes at room temperature; read-out: PIM1 LC3K (KI).
`C[C@H]1O[C@@H](c2c(NC(=O)c3nc(-c4c(F)cccc4F)sc3N)cnn2C)CC(F)(F)[C@@]1(C)N` (stereo in doubt) [Example 179, 5-Amino-N-[5-[5-amino-4,4-difluoro-5,6-dimethyl-tetrahydropyran-2-yl]-1-methyl-pyrazol-4-yl]-2-(2,6-difluorophenyl)thiazole-4-carboxamide]: the pKi is 9.34. The same measure, in the same setting: the value for `Cn1ncc(NC(=O)c2nc(-c3c(F)ccc(F)c3F)sc2N)c1[C@@H]1CC[C@@H](N)[C@@H](F)CO1` [Example 260, 5-amino-N-(5-((2S,5R,6R)-5-amino-6-fluorooxepan-2-yl)-1-methyl-1H-pyrazol-4-yl)-2-(2,3,6-trifluorophenyl)thiazole-4-carboxamide] was 11.40. As to `Cn1ncc(NC(=O)c2ccc(F)c(-c3c(F)cc(C(C)(C)O)cc3F)n2)c1[C@@H]1CC[C@@H](N)[C@H](F)CO1` [Example 200, N-(5-((2S,5R,6S)-5-amino-6-fluorooxepan-2-yl)-1-methyl-1H-pyrazol-4-yl)-6-(2,6-difluoro-4-(2-hydroxypropan-2-yl)phenyl)-5-fluoropicolinamide], the pKi is 10.96.

As to `Cn1ncc(NC(=O)c2csc(-c3cccc(F)c3F)n2)c1[C@@H]1CC[C@@H](N)[C@@H](F)CO1` [Example 245, N-(5-((2S,5R,6R)-5-amino-6-fluorooxepan-2-yl)-1-methyl-1H-pyrazol-4-yl)-2-(2,3-difluorophenyl)thiazole-4-carboxamide], the pKi was 9.98. On the same count and under the same terms, next, `Cn1ncc(NC(=O)c2csc(-n3cc4c(n3)CCCC4)n2)c1[C@@H]1CC[C@@H](N)[C@H](F)CO1` [Example 390, N-(5-((2S,5R,6S)-5-amino-6-fluorooxepan-2-yl)-1-methyl-1H-pyrazol-4-yl)-2-(4,5,6,7-tetrahydro-2H-indazol-2-yl)thiazole-4-carboxamide]: 9.57; `Cn1ncc(NC(=O)c2csc(-c3c(F)cc(C4(O)CCOC4)cc3F)n2)c1[C@@H]1CC[C@@H](N)[C@H](F)CO1` (stereo partly drawn) [Example 215, N-(5-((2S,5R,6S)-5-amino-6-fluorooxepan-2-yl)-1-methyl-1H-pyrazol-4-yl)-2-(2,6-difluoro-4-(3-hydroxytetrahydrofuran-3-yl)phenyl)thiazole-4-carboxamide]: 11.12; `Cn1ncc(NC(=O)c2csc(-c3cnn(C)c3C(F)(F)F)n2)c1[C@@H]1CC[C@@H](N)[C@@H](F)CO1` [Example 283, N-(5-((2S,5R,6R)-5-amino-6-fluorooxepan-2-yl)-1-methyl-1H-pyrazol-4-yl)-2-(1-methyl-5-(trifluoromethyl)-1H-pyrazol-4-yl)thiazole-4-carboxamide]: 9.77. Still for that read-out and setting: the value for `Cn1ncc(NC(=O)c2ccc(F)c(-c3c(F)cc(C4(O)CCC4)cc3F)n2)c1[C@@H]1CC[C@@H](N)[C@H](F)CO1` [Example 198, N-(5-((2S,5R,6S)-5-amino-6-fluorooxepan-2-yl)-1-methyl-1H-pyrazol-4-yl)-6-(2,6-difluoro-4-(1-hydroxycyclobutyl)phenyl)-5-fluoropicolinamide] was 10.68; that for `CO[C@H]1CO[C@H](c2c(NC(=O)c3nc(-c4c(F)cccc4C(F)(F)F)sc3N)cnn2C)CC[C@H]1N` [Example 279, 5-amino-N-(5-((2S,5R,6R)-5-amino-6-methoxyoxepan-2-yl)-1-methyl-1H-pyrazol-4-yl)-2-(2-fluoro-6-(trifluoromethyl)phenyl)thiazole-4-carboxamide] was 10.08. The same measure, in the same setting: the value for `Cn1ncc(NC(=O)c2nc(-c3c(F)cccc3F)sc2N)c1[C@@H]1CC[C@@H](CN)O1` (stereo in doubt) [Example 155, 5-Amino-N-[5-[5-(aminomethyl)tetrahydrofuran-2-yl]-1-methyl-pyrazol-4-yl]-2-(2,6-difluorophenyl)thiazole-4-carboxamide] was 9.98; that for `Cn1ncc(NC(=O)c2nc(-c3c(F)cccc3F)sc2N)c1[C@H]1OC[C@@](C)(CN)CO1` [Example 178, 5-Amino-N-[5-[5-(aminomethyl)-5-methyl-1,3-dioxan-2-yl]-1-methyl-pyrazol-4-yl]-2-(2,6-difluorophenyl)thiazole-4-carboxamide] was 9.81.

For `Cn1ncc(NC(=O)c2nc(-c3ccncc3F)sc2N)c1[C@@]12CC[C@@H](N)[C@@H](CC1)O2` (stereo in doubt) [Example 161, 5-Amino-N-[5-[2-amino-8-oxabicyclo[3.2.1]octan-5-yl]-1-methyl-pyrazol-4-yl]-2-(3-fluoro-4-pyridyl)thiazole-4-carboxamide], the pKi was 10.89. On the same count and under the same terms, next, `Cn1ncc(NC(=O)c2nc(-c3c(F)cccc3F)sc2N)c1[C@H]1CC[C@H](F)[C@@H](N)CO1` [Example 153, 5-Amino-N-[5-[(2R,5S,6S)-6-amino-5-fluoro-oxepan-2-yl]-1-methyl-pyrazol-4-yl]-2-(2,6-difluorophenyl)thiazole-4-carboxamide]: 9.94. Still for that read-out and setting: the value for `C[C@@H]1CC(O)CC[C@H](c2c(NC(=O)c3nc(-c4c(F)cccc4F)sc3N)cnn2C)O1` (stereo partly drawn) [Example 108, 5-amino-2-(2,6-difluorophenyl)-N-(5-((2R,7R)-5-hydroxy-7-methyloxepan-2-yl)-1-methyl-1H-pyrazol-4-yl)thiazole-4-carboxamide] was 10.31; that for `CC[C@]1(CO)CO[C@H](c2c(NC(=O)c3nc(-c4c(F)cccc4F)sc3N)cnn2C)OC1` [Example 162, 5-Amino-2-(2,6-difluorophenyl)-N-[5-[5-ethyl-5-(hydroxymethyl)-1,3-dioxan-2-yl]-1-methyl-pyrazol-4-yl]thiazole-4-carboxamide] was 10.60; that for `Cn1ncc(NC(=O)c2nc(-c3ccccc3OC(F)(F)F)sc2N)c1[C@@H]1CC[C@@H](N)[C@@H](F)CO1` [Example 266, 5-amino-N-(5-((2S,5R,6R)-5-amino-6-fluorooxepan-2-yl)-1-methyl-1H-pyrazol-4-yl)-2-(2-(trifluoromethoxy)phenyl)thiazole-4-carboxamide] was 9.81. Take `Cc1noc(C)c1-c1nc(C(=O)Nc2cnn(C)c2[C@@H]2CC[C@@H](N)[C@H](F)CO2)cs1` [Example 234, N-(5-((2S,5R,6S)-5-amino-6-fluorooxepan-2-yl)-1-methyl-1H-pyrazol-4-yl)-2-(3,5-dimethylisoxazol-4-yl)thiazole-4-carboxamide]: the pKi is 10.17.

On to `COC(c1cc(F)c(-c2nc(C(=O)Nc3cnn(C)c3[C@@H]3CC[C@@H](N)[C@H](F)CO3)ccc2F)c(F)c1)C1CC1` (stereo partly drawn) [Example 213, N-(5-((2S,5R,6S)-5-amino-6-fluorooxepan-2-yl)-1-methyl-1H-pyrazol-4-yl)-6-(4-(cyclopropyl(methoxy)methyl)-2,6-difluorophenyl)-5-fluoropicolinamide], for which the negative logarithm of the Ki (pKi) was 10.11. Still for that read-out and setting: next, `Cc1noc(C)c1-c1nc(C(=O)Nc2cnn(C)c2[C@@H]2CC[C@@H](N)[C@@H](F)CO2)cs1` [Example 244, N-(5-((2S,5R,6R)-5-amino-6-fluorooxepan-2-yl)-1-methyl-1H-pyrazol-4-yl)-2-(3,5-dimethylisoxazol-4-yl)thiazole-4-carboxamide]: 8.22; `Cn1ncc(NC(=O)c2csc(-c3ccccc3C(F)(F)F)n2)c1[C@@H]1CC[C@@H](N)[C@H](F)CO1` [Example 311, N-(5-((2S,5R,6S)-5-amino-6-fluorooxepan-2-yl)-1-methyl-1H-pyrazol-4-yl)-2-(2-(trifluoromethyl)phenyl)thiazole-4-carboxamide]: 8.78; `Cn1ncc(NC(=O)c2csc(-c3c(F)cccc3Cl)n2)c1[C@@H]1CC[C@@H](N)[C@H](F)CO1` [Example 284, N-(5-((2S,5R,6S)-5-amino-6-fluorooxepan-2-yl)-1-methyl-1H-pyrazol-4-yl)-2-(2-chloro-6-fluorophenyl)thiazole-4-carboxamide]: 9.66.

For the molecule `Cn1ncc(NC(=O)c2nc(-c3ccccc3C(F)F)sc2N)c1[C@@H]1CC[C@@H](N)[C@H](F)CO1` [Example 335, 5-amino-N-(5-((2S,5R,6S)-5-amino-6-fluorooxepan-2-yl)-1-methyl-1H-pyrazol-4-yl)-2-(2-(difluoromethyl)phenyl)thiazole-4-carboxamide], the pKi was 10.04. For `Cn1ncc(NC(=O)c2csc(-c3c(F)cc(O[C@H]4CCOC4)cc3F)n2)c1[C@@H]1CC[C@@H](N)[C@H](F)CO1` [Example 218], the negative-log Ki (pKi) was 11.65. Still for that read-out and setting: next, `Cn1ncc(NC(=O)c2nc(-c3c(F)cccc3F)sc2N)c1C1C[C@H](N)[C@@H](F)CCO1` (stereo partly drawn) [Example 130, 5-amino-N-(5-((4S,5S)-4-amino-5-fluorooxepan-2-yl)-1-methyl-1H-pyrazol-4-yl)-2-(2,6-difluorophenyl)thiazole-4-carboxamide]: 9.45; `Cn1ncc(NC(=O)c2nc(-c3c(F)cccc3F)sc2N)c1C1CCC(N)COC1` (stereo not shown) [Example 144, 5-amino-N-[5-(6-aminooxepan-3-yl)-1-methyl-pyrazol-4-yl]-2-(2,6-difluorophenyl)thiazole-4-carboxamide]: 8.84; `Cn1ncc(NC(=O)c2nc(-c3c(F)cccc3F)sc2N)c1[C@H]1C[C@H](F)[C@@H](N)CCO1` [Example 137, 5-amino-N-(5-((2R,4S,5S)-5-amino-4-fluorooxepan-2-yl)-1-methyl-1H-pyrazol-4-yl)-2-(2,6-difluorophenyl)thiazole-4-carboxamide]: 10.00. Still for that read-out and setting: next, `Cn1ncc(NC(=O)c2ccc(F)c(-c3cc(F)ccc3F)n2)c1[C@@H]1CC[C@@H](N)[C@H](F)CO1` [Example 222, N-(5-((2S,5R,6S)-5-amino-6-fluorooxepan-2-yl)-1-methyl-1H-pyrazol-4-yl)-6-(2,5-difluorophenyl)-5-fluoropicolinamide]: 9.79.

For the origin of these results see US9328106B2, “Cyclic ether pyrazol-4-yl-heterocyclyl-carboxamide compounds and methods of use” (Genentech, Inc., priority 2012, dated 2016).
